Source: publication PMC8739840, “Structural and Molecular Insight into Piperazine and Piperidine Derivatives as Histamine H3 and Sigma-1 Receptor Antagonists with Promising Antinociceptive Properties” (ACS Chemical Neuroscience, 2021)
Several values for one entry are separate records, joined by “and”; a condition that tells them apart may be missing. Identical values can stand only once. Counter-ions that a name gives are not always drawn. Like-named read-outs stand apart in the source and are kept apart here.

Experiments:
[1] = biological target: T1, σ2R (Rattus norvegicus, UniProt Q5U3Y7); assay: σ2R radioligand binding ([3H]DTG, liver membranes)
T1 sequence (Q5U3Y7 1-176): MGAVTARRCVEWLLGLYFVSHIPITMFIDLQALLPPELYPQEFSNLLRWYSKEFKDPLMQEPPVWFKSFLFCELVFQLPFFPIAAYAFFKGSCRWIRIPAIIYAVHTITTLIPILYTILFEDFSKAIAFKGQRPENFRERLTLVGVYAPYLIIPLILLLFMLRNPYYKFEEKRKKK

[2] = biological target: σ1R (Cavia porcellus, UniProt Q60492); assay: σ1R radioligand binding ([3H](+)-pentazocine, brain cortex membranes)
[3] = test system: σ1R; assay: as above; conditions: σ2R Ki / σ1R Ki (selectivity factor)
[4] = biological target: T2, human recombinant histamine H3R (Homo sapiens, UniProt Q9Y5N1); conditions: mean [CI 95%]; read-out: hH3R Ki; cited from earlier work
T2 construct: expressed in transfected cells

[5] = biological target: σ2R; conditions: cited from earlier work
[6] = biological target: H3R; conditions: Figure 1, clinically evaluated H3R antagonists; cited from earlier work
[7] = biological target: σ1R; conditions: cited from earlier work
[8] = test system: female CD1 mice; assay: loperamide-induced antinociception, paw pressure struggle response latency; assay type: in vivo; conditions: for functional character at σ1 receptor deduced in vivo: from potentiation of loperamide antinociception and reversal by PRE-084; for effect on loperamide-induced antinociception: injected paw; for effect alone on struggle response latency to mechanical stimulus: 450 g paw pressure, without loperamide
[9] = biological target: T2, human recombinant histamine H3R; assay: hH3R radioligand depletion binding assay ([3H]Nα-methylhistamine); conditions: mean [CI 95%]; HEK293 cells; data not published yet
[10] = biological target: T3, hH4R (Homo sapiens, UniProt Q9H3N8); assay: hH4R radioligand binding ([3H]UR-PI294); conditions: HEK293T cells; oxalate form
T3 construct: SP (signal peptide) (N); expressed in transfected cells
Procedure: (§1) Compounds (as oxalate salts) were tested in H3R in vitro binding studies, using methods described previously.[47],[48] […] Radioligand binding experiments at the H1R, H2R, and H4R were performed as previously described in Rosier et al.[70] and Bartole et al.[71] with HEK293T-SP-FLAG-hHxR (x = 1, 2, or 4) expressing the respective hHR. […] Data represent mean values ± CI from three independent experiments, each performed in triplicate. The normalized competition binding curves were then fitted with a four-parameter logistic fit yielding IC50 values using Prism 8.4.3 software (GraphPad, SanDiego, CA). The Ki values were estimated from the Cheng–Prusoff equation.[74]

[11] = biological target: T4, hH2R (Homo sapiens, UniProt P25021); assay: hH2R radioligand binding ([3H]UR-DE257); conditions: HEK293T cells; oxalate form
T4 construct: SP (signal peptide) (N); expressed in transfected cells
Procedure: as §1

[12] = biological target: T5, hH1R (Homo sapiens, UniProt P35367); assay: hH1R radioligand binding ([3H]mepyramine); conditions: HEK293T cells; oxalate form
T5 construct: SP (signal peptide) (N); expressed in transfected cells
Procedure: as §1

[13] = biological target: T6, human H3R (Homo sapiens, UniProt Q9Y5N1); set-up: method as in PMID 33261900; conditions: antagonist mode; read-out: hH3R Kb; cited from earlier work
T6 construct: expressed in transfected cells

[14] = biological target: T5, hH1R; set-up: method as in PMID 33261900; conditions: cited from earlier work
[15] = exptl Ki σ2, Table 3, given as mean ± spread
[16] = σ2R Ki, mean [CI 95%], [3H]DTG with (+)-pentazocine mask
[17] = exptl Ki σ1, Table 3, given as mean ± spread
[18] = σ1R Ki, mean [CI 95%], [3H](+)-pentazocine
[19] = Figure 1, clinically evaluated H3R antagonists, read-out: σ1R Ki
[20] = Table S1, well-known ligands (test set), no reference given, read-out: Exp. σ2 Ki
[21] = Table S1, well-known ligands (test set), no reference given, read-out: Exp. σ1 Ki
[22] = mice, ipl 100 μg + loperamide 4 mg/kg sc

T2 sequence (Q9Y5N1 whole entry): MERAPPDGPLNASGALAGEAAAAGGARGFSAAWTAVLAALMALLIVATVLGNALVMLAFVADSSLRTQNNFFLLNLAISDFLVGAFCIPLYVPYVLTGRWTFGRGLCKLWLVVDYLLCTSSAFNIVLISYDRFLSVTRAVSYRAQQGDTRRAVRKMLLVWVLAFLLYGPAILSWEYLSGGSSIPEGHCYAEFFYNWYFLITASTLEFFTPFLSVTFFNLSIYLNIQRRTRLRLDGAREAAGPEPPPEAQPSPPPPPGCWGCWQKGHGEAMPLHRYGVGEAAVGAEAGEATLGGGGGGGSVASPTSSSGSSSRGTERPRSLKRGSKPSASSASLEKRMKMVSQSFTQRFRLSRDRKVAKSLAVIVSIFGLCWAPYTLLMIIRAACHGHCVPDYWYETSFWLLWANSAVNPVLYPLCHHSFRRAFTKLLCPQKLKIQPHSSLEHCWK
σ1R (Cavia porcellus, UniProt Q60492), sequence (Q60492 whole entry): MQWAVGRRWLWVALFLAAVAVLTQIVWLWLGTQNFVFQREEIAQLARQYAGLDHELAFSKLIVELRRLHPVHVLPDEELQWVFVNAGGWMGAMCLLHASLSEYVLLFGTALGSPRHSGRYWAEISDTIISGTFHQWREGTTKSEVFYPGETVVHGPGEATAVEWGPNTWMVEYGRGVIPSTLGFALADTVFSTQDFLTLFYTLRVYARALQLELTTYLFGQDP
T5 sequence (P35367 whole entry): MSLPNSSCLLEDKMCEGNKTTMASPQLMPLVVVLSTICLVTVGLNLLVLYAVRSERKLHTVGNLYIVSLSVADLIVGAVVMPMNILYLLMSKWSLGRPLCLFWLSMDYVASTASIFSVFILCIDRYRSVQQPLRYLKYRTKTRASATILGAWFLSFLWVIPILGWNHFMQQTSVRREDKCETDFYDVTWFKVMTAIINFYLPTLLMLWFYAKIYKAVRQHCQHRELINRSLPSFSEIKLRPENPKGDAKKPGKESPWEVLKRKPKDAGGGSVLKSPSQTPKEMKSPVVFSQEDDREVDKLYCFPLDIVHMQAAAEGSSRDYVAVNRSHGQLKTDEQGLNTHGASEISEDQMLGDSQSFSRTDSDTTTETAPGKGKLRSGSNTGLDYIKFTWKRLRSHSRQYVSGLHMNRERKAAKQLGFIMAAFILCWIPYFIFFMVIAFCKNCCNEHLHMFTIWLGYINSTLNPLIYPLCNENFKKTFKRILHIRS
T6 sequence (Q9Y5N1 whole entry): as the sequence (Q9Y5N1 whole entry) above
T3 sequence (Q9H3N8 whole entry): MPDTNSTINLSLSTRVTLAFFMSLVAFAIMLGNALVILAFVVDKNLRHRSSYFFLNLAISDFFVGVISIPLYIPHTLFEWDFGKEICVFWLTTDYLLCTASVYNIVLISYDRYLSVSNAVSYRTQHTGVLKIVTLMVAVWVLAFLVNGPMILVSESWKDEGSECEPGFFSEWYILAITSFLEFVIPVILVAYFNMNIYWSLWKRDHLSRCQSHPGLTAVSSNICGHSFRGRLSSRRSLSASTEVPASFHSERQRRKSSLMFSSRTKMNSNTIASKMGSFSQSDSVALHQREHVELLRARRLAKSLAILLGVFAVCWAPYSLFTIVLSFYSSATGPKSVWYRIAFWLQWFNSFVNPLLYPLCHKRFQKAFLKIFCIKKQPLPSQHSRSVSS
T4 sequence (P25021 whole entry): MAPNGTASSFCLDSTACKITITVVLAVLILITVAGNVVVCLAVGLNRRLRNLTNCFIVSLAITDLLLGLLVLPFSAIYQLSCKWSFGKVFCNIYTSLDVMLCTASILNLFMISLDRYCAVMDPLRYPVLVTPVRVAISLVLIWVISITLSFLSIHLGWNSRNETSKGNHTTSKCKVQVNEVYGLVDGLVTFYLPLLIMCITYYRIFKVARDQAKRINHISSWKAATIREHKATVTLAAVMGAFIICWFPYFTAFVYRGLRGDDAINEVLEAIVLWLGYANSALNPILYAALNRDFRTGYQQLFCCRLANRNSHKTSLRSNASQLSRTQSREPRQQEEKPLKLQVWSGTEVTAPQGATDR

Compound	Ki [1, 15] [nM]	Ki [1, 16]	Ki [2, 17] [nM]	Ki [2, 18] [nM]	σ2/σ1 ratio [3]	other results
N#Cc1ccc(-c2ccc(OCCCN3CCN(c4ccncc4)CC3)cc2)cc1 [Compound 7]	75.2 ± 13	75.2 nM	–	–	–	–
O=C(c1ccc(F)cc1)c1ccc(OCCCN2CCN(c3ccncc3)CC2)cc1 [Compound 10]	164 ± 34.6	164 nM	1310 ± 332	1310	0.1	–
CC(=O)c1ccc(OCCCCN2CCN(c3ccncc3)CC2)cc1 [Compound 15]	1790 ± 415	1800 nM	> 10000	> 10000	<0.2	–
CCc1ccc(OCCCN2CCN(c3ccncc3)CC2)cc1 [Compound 1]	64.3 ± 14	64.3 nM	592 ± 94.1	592	0.1	Ki [4]: 40.4 nM
C#CCN(C)Cc1cc2cc(OCCCN3CCCCC3)ccc2n1C [Contilisant]	–	–	–	–	–	Ki ([5]; Figure 1, clinically evaluated H3R antagonists, read-out: σ2R Ki): 326 nM; Ki [6]: 10.8 nM; Ki [7, 19]: 65.2 nM
C[C@@H]1CCCN1CCc1cc2cc(-c3ccc(C#N)cc3)ccc2o1 [ABT-239]	–	–	–	–	–	Ki [6]: 15.9 nM; Ki [7, 19]: 6.3 nM
COc1cc2c(cc1OC)CN(CCCCNC(=O)c1cc(C)ccc1OCCF)CC2 [F-ISO]	–	–	–	–	–	Ki [5, 20]: 6.95 nM; Ki [7, 21]: 330 nM
O=C(c1ccccc1)c1ccc(OCCCN2CCN(c3ccncc3)CC2)cc1 [Compound 8]	29.2 ± 1.81	29.2 nM	726 ± 177	726	–	–
CC(C)(C)c1ccc(OCCCCCCN2CCN(c3ccncc3)CC2)cc1 [Compound 18]	179 ± 27.2	179 nM	255 ± 48	255	0.7	Ki [4]: 397 nM
O=C(OCCN1CCOCC1)C1(c2ccccc2)CCCCC1 [PRE-084, 2-[4-morpholinethyl]1-phenylcyclohexanecarboxylate hydrochloride]	–	–	–	–	–	Ki [5, 20]: 13100 nM; Ki ([5]; reference σ1R ligands, read-out: σ2R Ki): > 10000 nM; effect of coadministration on potentiation of loperamide antinociception by S1RA ([8]; mice, 75 μg ipl with S1RA, loperamide-treated, identical with 5 or 11): completely abolished the effect of the σ1R antagonist; Ki [9]: > 10000 nM
CCC(=O)c1ccc(OCCCCCCCCN2CCN(c3ccncc3)CC2)cc1 [Compound 20]	65.9 ± 11	65.9 nM	274 ± 40.4	274	0.2	Ki [4]: 38.9 nM
c1ccc(-c2ccc(OCCCN3CCCCC3)cc2)cc1 [Compound 11]	67.9 ± 7.51	68 nM and 67.9 nM	4.41 ± 0.58	4.41	–	Ki [10]: > 10000 nM; functional character at σ1 receptor deduced in vivo [8]: σ1 receptor antagonists; effect on loperamide-induced antinociception ([8]; mice, ipl 50 μg + loperamide 4 mg/kg sc): increased the antinociceptive effect of loperamide at the injected paw; effect alone on struggle response latency to mechanical stimulus ([8]; mice, ipl 50 μg): did not have any effect per se; Ki [11]: > 100000 nM; Ki [12]: > 10000 nM
CC(=O)c1ccc(OCCCCCCN2CCN(c3ccncc3)CC2)cc1 [Compound 16]	151 ± 26.4	151 nM	37.8 ± 16.1	37.8	4.0	Ki [4]: 12.7 nM
CCC(=O)c1ccc(OCCCCCCN2CCN(c3ccncc3)CC2)cc1 [Compound 17]	110 ± 15.9	110 nM	248 ± 30.9	248	0.4	Ki [4]: 16.9 nM
CNC(=O)c1ccc(Oc2ccc3c(c2)CCN(C2CCC2)CC3)nc1 [GSK189254]	–	–	–	–	–	Ki [6]: 1.7 nM; Ki [7, 19]: 240 nM
c1cc(OCCCN2CCCCC2)ccc1CN1CCCCC1 [JNJ-5207852]	–	–	–	–	–	Ki [6]: 0.3 nM; Ki [7, 19]: 1170 nM

Compound	Ki [1, 15] [nM]	Ki [1, 16]	Ki [2, 17] [nM]	Ki [2, 18] [nM]	σ2/σ1 ratio [3]	other results
CN1CCN(CCc2ccc(Cl)c(Cl)c2)CC1 [BD1063]	–	–	–	–	–	Ki [7, 21]: 13.7 nM
CC(=O)c1ccc(OCCCN2CCN(c3ccncc3)CC2)cc1 [Compound 3]	247 ± 39.4	247 nM	1410 ± 312	1410	0.2	–
Cc1cc(OCCN2CCOCC2)nn1-c1ccc2ccccc2c1 [S1RA, 4-[2-[[5-methyl-1-(2-naphthalenyl)-1H-pyraol-3-yl]oxy]ethyl]morpholine hydrochloride, reference compound]	–	–	–	–	–	effect on loperamide-induced antinociception [8, 22]: significantly increased the antinociceptive effect induced by loperamide; effect alone on struggle response latency to mechanical stimulus ([8]; mice, ipl 100 μg): did not change the response to the mechanical stimulus; Ki [9]: > 10000 nM
CC(C)(C)c1ccc(OCCCCN2CCN(c3ccncc3)CC2)cc1 [Compound 13]	175 ± 35.1	175 nM	51.8 ± 9.1	51.8	3.4	–
c1ccc(-c2ccc(OCCCN3CCN(c4ccncc4)CC3)cc2)cc1 [Compound 6]	108 ± 19.2	108 nM	638 ± 120	638	0.2	Ki [4]: 21.1 nM
O=C(c1ccccc1)c1ccc(OCCCN2CCCCC2)cc1 [Compound 12]	96.2 ± 14.7	96.2 nM	14.8 ± 1.86	14.8	6.5	Ki [9]: 22 nM
O=C(c1ccc(OCCCN2CCN(c3ccncc3)CC2)cc1)C1CC1 [Compound 4]	101 ± 15.4	101 nM	1530 ± 275	1530	0.1	Ki [4]: 3 nM
O=C(c1ccc(Cl)cc1)c1ccc(OCCCN2CCN(c3ccncc3)CC2)cc1 [Compound 9]	32.4 ± 3.46	32.4 nM	641 ± 87.9	641	0.1	–
CC(C)(C)c1ccc(OCCCN2CCN(c3ccncc3)CC2)cc1 [Compound 2]	130 ± 8.23	130 nM	112 ± 9.45	112	1.2	–
CC(C(O)c1ccc(O)cc1)N1CCC(Cc2ccccc2)CC1 (stereo not drawn) [Ifenprodil]	–	–	–	–	–	Ki [5, 20]: 18.8 nM; Ki [7, 21]: 1.02 nM
CN(C)C(=O)C(CCN1CCC(O)(c2ccc(Cl)cc2)CC1)(c1ccccc1)c1ccccc1 [loperamide, loperamide hydrochloride, reference compound]	–	–	–	–	–	struggle response latency versus solvent ([8]; mice, 4 mg/kg sc alone): minimal (nonsignificant) increase in the struggle response latency
CC(=O)c1ccc(OCCCCCCCCN2CCN(c3ccncc3)CC2)cc1 [Compound 19]	59.7 ± 11.2	59.7 nM	408 ± 111	408	0.1	Ki [4]: 40.5 nM
CCC(C)(C)c1ccc(OCCCCN2CCN(c3ccncc3)CC2)cc1 [Compound 14]	101 ± 19.3	101 nM	285 ± 50.4	285	0.4	–
COOc1c(OC)cc(I)cc1C(=O)NCCCCN1CCc2cc(OC)c(OC)cc2C1 [RHM-4, N-(4-(6,7-Dimethoxy-3,4-dihydroisoquinolin-2(1H)-yl)butyl)-5-iodo-3-methoxy-2-(methylperoxy)benzamide]	–	–	–	–	0.00012	Ki ([5]; read-out: σ2R Ki): 0.26 nM; Ki ([7]; read-out: σ1R Ki): 2150 nM
C=CCN1CC[C@]23c4c5ccc(O)c4O[C@H]2C(=O)CC[C@@]3(O)[C@H]1C5 [naloxone, Naloxone hydrochloride, reference compound]	–	–	–	–	–	effect on antinociception of loperamide + S1RA ([8]; mice, 1 mg/kg sc, identical with 5 or 11): full reversion of the antinociceptive effect of the combination of loperamide + S1RA
O=C(c1ccc(OCCCN2CCC(c3ccncc3)CC2)cc1)C1CC1 [Compound 5]	22.4 ± 4.13	22 nM and 22.4 nM	3.64 ± 0.74	3.64	–	functional character at σ1 receptor deduced in vivo [8]: σ1 receptor antagonists; effect on loperamide-induced antinociception [8, 22]: increased the antinociceptive effect of loperamide at the injected paw; effect alone on struggle response latency to mechanical stimulus ([8]; mice, ipl 100 μg): did not have any effect per se; Kb [13]: 18.8 nM; Ki [4]: 8 nM; Ki [14]: > 10000 nM
